This is an account of results in patent US11154563B2, “Immunoproteasome inhibitors” (Principia Biopharma Inc., priority 2017, dated 2021).

In assay [1] the target is immunoproteasome LMP7/B5i subunit (Homo sapiens, UniProt P20618+P28062). Nature of the assay: Caliper-based proteasome enzymatic activity assay, LMP7. Format: biochemical. The settings on record: human recombinant immunoproteasome 0.3 nM, FAM-peptide substrate 1 μM, 3 h at rt. The essentials: (§1)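 Recombinant human immunoproteasome or constitutive proteasome (0.3 nM) with 1 μM FAM-peptide in 20 mM Hepes pH 7.4, 0.015% SDS, 0.01% BSA; LMP7/β5c ran 3 h at rt and were stopped with 5 uM carfilzomib, LMP2 ran 2 h and was stopped with 6.7 uM ixazomib. Cleaved product quantified by microfluidic separation; IC50 from percent inhibition.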

Assay [2] deals with constitutive proteasome β5c unit (Homo sapiens, UniProt P20618+P28074). In words: Caliper-based proteasome enzymatic activity assay, β5c. To be noted: human recombinant constitutive proteasome 0.3 nM, FAM-peptide substrate 1 μM, 3 h at rt; read-out: β5c subunit IC50. It counts as biochemical. The essentials:
as §1

The target of assay [3] is immunoproteasome LPM2/β1i subunit (Homo sapiens, UniProt P28065+P40306). Nature of the assay: Caliper-based proteasome enzymatic activity assay, LMP2. Format: biochemical. To be noted: human recombinant immunoproteasome 0.3 nM, FAM-peptide substrate 1 μM, 2 h at rt. In outline: as §1
For a further assay, the target named is T1, PBMC/LMP7 (Homo sapiens, UniProt P28062).
T1 construct: endogenous in cells; host or cells: primary human PBMC
In words: Inhibition of proteasome activity in cells (Proteasome-Glo), PBMC. The settings on record: primary human PBMC, 2 h incubation, Suc-LLVY-aminoluciferin substrate. It counts as cell-based. The protocol: The cell-based effects of a compound described herein on the immunoproteasome are determined by measuring inhibition of proteasome activity in cells using the Proteasome-Glo™ Cell-Based Reagent (Promega, Madison Wis.). The Proteasome-Glo™ assay contains a specific luminogenic proteasome substrate in a buffer optimized for cell permeabilization, proteasome activity, and luciferase activity. For the chymotrypsin-like activity (LMP7 and […]), the peptide substrate is Suc-LLVY-aminoluciferin (Succinyl-leucine-leucine-valine-tyrosine-aminoluciferin). Cleavage of the substrate by proteasome results in luminescent signal which is proportional to the proteasome activity. The cell line THP-1 (a monocytic leukemia cell line enriched in immunoproteasome), the cell line HT-29 (a colorectal adenocarcinoma cell line enriched in constitutive proteasome), and primary human peripheral blood mononuclear cells (PBMC) are used to assess proteasome activity. Cells are seeded in a 96-well plate at 10,000 cells per well in RPMI 1640 high glucose medium with 10% fetal bovine serum (FBS). Compound dilutions are added to cells starting at a concentration of 5 uM and decreasing in tripling dilutions. The final DMSO concentration is 1%. The concentration range is adjusted as needed for compounds of different potencies. The cells treated with compounds are incubated for 2 h at 37° C. in 5% CO2. At the end of the 2 h incubation period, cells are transferred to white 384 well assay plates. 20 uL of Proteasome-Glo™ Reagent is added to each well and incubated for 10 min at rt. The plate is read in the Analyst HT instrument (Molecular Devices, Sunnyvale, Calif.) using luminescence mode. The percent inhibition of activity is plotted as a function of log compound concentration. The IC50 is then calculated for each compound using Prism software from GraphPad Software Inc. (San Diego, Calif.).

The subject of assay [4] is multiple myeloma cell lines and primary patient tumor cells. To be noted: including cells resistant to conventional and novel prior therapies; cited from earlier work.
Assay [5] has as its system murine collagen-induced arthritis. To be noted: including reduction of inflammation and bone erosion; cited from earlier work.
Assay [6] relates to murine DSS-induced colitis model. To be noted: cited from earlier work.
In the next assay the test system is MRL/lpr lupus model. The settings on record: cited from earlier work.
Assay [7] concerns Hashimoto's thyroiditis model. The settings on record: autoantibody-driven model; cited from earlier work.
In a further assay the test system is Th1/17 differentiation. To be noted: human and mouse; cited from earlier work.
The test system of another assay is tumor growth. The settings on record: cited from earlier work.
Another assay relates to prostate PC-3 cell line. To be noted: in vitro; cited from earlier work.

Bounds are passed on as bounds.

The IC50 is the midpoint of a concentration-inhibition curve. On to `CC(C)C=C(C#N)C(=O)N1CCCC1CCC(=O)N[C@@H](Cc1ccccc1)B(O)O` (single isomer, unassigned) [Example 3], for which the IC50 in [1] was 60 nM; in assay [2], > 5000 nM; in assay [3], 3430 nM; against PBMC/LMP7, 130 nM.

With `CC(C)C=C(C#N)C(=O)N1CCCC1CCC(=O)N[C@@H](Cc1ccccc1)B(O)O` (single isomer, unassigned) [Example 4], the IC50 is 4 nM in assay [1], 637 nM in [2], 2440 nM in assay [3] and 39 nM against PBMC/LMP7.

For `CC(C)C=C(C#N)C(=O)N1CCCCC1CCC(=O)N[C@@H](Cc1ccccc1)B(O)O` (single isomer, unassigned) [Example 5], the IC50 in [1] was 7.6 nM; in [2], 1040 nM; in assay [3], 448 nM; on PBMC/LMP7, 23 nM.

As to `CC(C)C=C(C#N)C(=O)N1CCCCC1CCC(=O)N[C@@H](Cc1ccccc1)B(O)O` (single isomer, unassigned) [Example 6], the IC50 in [1] was 57 nM; in assay [2] it was > 5000 nM; in assay [3], 964 nM; against PBMC/LMP7, 140 nM.

`CC(C)C=C(C#N)C(=O)N1CCCC[C@@H]1COC(=O)N[C@@H](Cc1ccccc1)B(O)O` [Example 2, ((R)-1-(((((R)-1-(2-cyano-4-methylpent-2-enoyl)piperidin-2-yl)methoxy)carbonyl)amino)-2-phenylethyl)boronic acid]: the IC50 in [1] was 55 nM; in assay [2] it was > 5000 nM; in [3] it was > 5000 nM; at PBMC/LMP7, 420 nM.

As to `CC(C)C=C(C#N)C(=O)N1CCC[C@@H]1COC(=O)N[C@@H](Cc1ccccc1)B(O)O` [Example 7, ((R)-1-(((((R)-1-(2-cyano-4-methylpent-2-enoyl)pyrrolidin-2-yl)methoxy)carbonyl)amino)-2-phenylethyl)boronic acid], the IC50 in assay [1] was 2.6 nM; in [2], > 5000 nM; in assay [3], > 5000 nM; on PBMC/LMP7, 9.4 nM.

On to `CC(C)(C)C=C(C#N)C(=O)N1CCC[C@@H]1COC(=O)N[C@@H](Cc1ccccc1)B(O)O` [Example 10, ((R)-1-(((((R)-1-(2-cyano-4,4-dimethylpent-2-enoyl)pyrrolidin-2-yl)methoxy)carbonyl)amino)-2-phenylethyl)boronic acid], for which the IC50 is 1.8 nM in assay [1], 3410 nM in assay [2], > 5000 nM in assay [3] and 7.1 nM against PBMC/LMP7.

For `CC(C)(C)C=C(C#N)C(=O)N1CCCC[C@@H]1COC(=O)N[C@@H](Cc1ccccc1)B(O)O` [Example 15, ((R)-1-(((((R)-1-(2-cyano-4,4-dimethylpent-2-enoyl)piperidin-2-yl)methoxy)carbonyl)amino)-2-phenylethyl)boronic acid], the IC50 in [1] was 5.5 nM; in [2] it was 4190 nM; in assay [3], > 5000 nM; against PBMC/LMP7, 3.3 nM.

Take `CC1=C(C(=O)N[C@H](C)C(=O)N[C@@H](Cc2c[nH]c3ccccc23)C(=O)N[C@@H](Cc2ccccc2)C(=O)[C@@]2(C)CO2)Cc2ccccc21` [PR-924]: the “growth of multiple myeloma cells” value in assay [4] is recorded as “inhibit growth”.

Turning to `COc1ccc(C[C@H](NC(=O)[C@H](C)NC(=O)CN2CCOCC2)C(=O)N[C@@H](Cc2ccccc2)C(=O)[C@@]2(C)CO2)cc1` [PR-957], the “disease activity in collagen-induced arthritis” value in assay [5] was “significantly inhibit disease activity”. Further, the “inflammation and tissue destruction” value in assay [6] is “reduced inflammation and tissue destruction”. Also, in the assay with MRL/lpr lupus model, the disease progression result is “prevented disease progression”; the “plasma cell numbers and anti-dsDNA IgG levels” value is “reduced plasma cell numbers and anti-dsDNA IgG levels”. In assay [7], the “efficacy in Hashimoto's thyroiditis model” value is reported as “efficacious”. Moreover, in the assay on Th1/17 differentiation, the “block of Th1/17 differentiation” value is “potently block”.

Turning to `CCCCCCC(=O)N[C@@H](C)C(=O)N[C@@H](CC(C)C)C(=O)[C@@]1(CO[Si](C)(C)C(C)(C)C)CO1` [UK-101], the “tumor growth in vivo” value in the assay on tumor growth is on record as “significantly suppressed tumor growth”. Also, the “apoptosis of PC-3 cells” value in the assay on prostate PC-3 cell line is “induced apoptosis”.
